The results in this text go back to patent publication US20170022171A1, “2,5-DISUBSTITUTED CYCLOPENTANECARBOXYLIC ACIDS AND THEIR USE” (Bayer Pharma Aktiengesellschaft, priority 2014, published 2017).

Assay type in all cases: biochemical
In test [1] the target is T1, MMP-2 (Homo sapiens, UniProt P08253).
T1 construct: purchased R&D Systems 902-MP
T1 sequence (P08253 110-660): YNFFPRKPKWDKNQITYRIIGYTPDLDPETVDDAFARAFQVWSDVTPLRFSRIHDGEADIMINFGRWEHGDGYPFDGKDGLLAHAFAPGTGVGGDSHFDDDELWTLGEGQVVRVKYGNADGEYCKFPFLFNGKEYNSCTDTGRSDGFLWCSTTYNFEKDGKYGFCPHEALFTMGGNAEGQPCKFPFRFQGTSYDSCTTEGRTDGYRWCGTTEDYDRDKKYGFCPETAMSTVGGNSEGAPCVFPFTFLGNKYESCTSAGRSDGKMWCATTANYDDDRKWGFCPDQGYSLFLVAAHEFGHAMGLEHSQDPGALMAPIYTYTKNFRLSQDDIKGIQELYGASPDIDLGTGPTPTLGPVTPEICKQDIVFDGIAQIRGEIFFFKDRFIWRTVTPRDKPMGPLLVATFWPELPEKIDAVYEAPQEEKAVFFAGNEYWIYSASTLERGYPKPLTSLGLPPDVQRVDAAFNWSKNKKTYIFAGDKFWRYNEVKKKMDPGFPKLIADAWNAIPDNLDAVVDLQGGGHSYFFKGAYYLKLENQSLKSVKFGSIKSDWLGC
The experiment in a line: In vitro MMP-2 inhibition test. The text has this:
(§1) The MMP-mediated amidolytic cleavage of a suitable peptide substrate leads to an increase in fluorescent light here too. The signal intensity of the fluorescent light is directly proportional to the enzyme activity. The active concentration of a test compound at which half the enzyme is inhibited (50% signal intensity of the fluorescent light) is reported as the IC50 value.
(§2) Recombinant MMP-2 (from R&D Systems, 902-MP) is chemically activated in accordance with the manufacturer's instructions using APMA. 1 μl of the test compound to be analysed (as a solution in DMSO, suitable concentrations, for example, 1 nM to 30 μM) is pipetted into 24 μl of activated enzyme (final concentration, for example, 2 nM) in reaction buffer (50 mM Tris/HCl pH 7.5, 10 mM CaCl2, 150 mM NaCl, 0.05% Brij®-35) in a white 384-hole microtiter plate (MTP). The enzymatic reaction is started by adding the intramolecularly quenched Mca-Pro-Leu-Gly-Leu-Dpa(Dnp)-Ala-Arg-NH2 substrate (final concentration, for example, 10 μM; R&D Systems, ES-001), so as to result in a total test volume of 50 μl. The course of the MMP-2 reaction is measured by measuring the fluorescence intensity (excitation 320 nm, emission 410 nm) over a suitable period of time (for example over 120 min at a temperature of 32° C.).

For test [2], the target named is T2, MMP-7 (Homo sapiens, UniProt P09237).
T2 construct: purchased R&D Systems 907-MP
T2 sequence (P09237 95-267): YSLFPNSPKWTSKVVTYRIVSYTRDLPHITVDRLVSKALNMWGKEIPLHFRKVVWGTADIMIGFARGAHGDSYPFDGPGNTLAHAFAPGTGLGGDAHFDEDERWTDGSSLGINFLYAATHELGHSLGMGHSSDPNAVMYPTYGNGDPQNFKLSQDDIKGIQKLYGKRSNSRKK
In words: In vitro MMP-7 inhibition test.
Excerpt: as §1
as §2, with “Recombinant MMP-7” for “Recombinant MMP-2”, “Systems, 907-MP)” for “Systems, 902-MP)”, “example, 0.5” for “example, 2”, “[…]” for “50 μl.”, “the MMP-7” for “the MMP-2”

For test [3], the target named is T3, MMP-13 (Homo sapiens, UniProt P45452).
T3 construct: purchased R&D Systems 511-MP
The experiment in a line: In vitro MMP-13 inhibition test.
Excerpt: as §1
as §2, with “Recombinant MMP-13” for “Recombinant MMP-2”, “Systems, 511-MP)” for “Systems, 902-MP)”, “example, 0.1” for “example, 2”, “50” for “50 μl.”, “the MMP-13” for “the MMP-2”

The target of test [4] is T4, MMP-16 (Homo sapiens, UniProt P51512).
T4 construct: purchased R&D Systems 1785-MP
In words: In vitro MMP-16 inhibition test.
Excerpt: as §1
Recombinant MMP-16 (from R&D Systems, 1785-MP) is enzymatically activated in accordance with the manufacturer's instructions using recombinant furin (from R&D Systems, 1503-SE). 1 μl of the test compound to be analysed (as a solution in DMSO, suitable concentrations e.g. 1 nM to 30 μM) is pipetted into 24 μl of activated enzyme (final concentration e.g. 1 nM) in reaction buffer (50 mM Tris/HCl pH 7.5, 10 mM CaCl2, 150 mM NaCl, 0.05% Brij®-35) in a white 384-hole microtiter plate (MTP). The enzymatic reaction is started by adding the intramolecularly quenched Mca-Lys-Pro-Leu-Gly-Leu-Dpa(Dnp)-Ala-Arg-NH2 substrate (final concentration, for example, 5 μM; R&D Systems, ES-010), so as to result in a total test volume of 50 The course of the MMP-16 reaction is measured by measuring the fluorescence intensity (excitation 320 nm, emission 410 nm) over a suitable period of time (for example over 120 min at a temperature of 32° C.).

T4 sequence (P51512 120-564 limits assumed): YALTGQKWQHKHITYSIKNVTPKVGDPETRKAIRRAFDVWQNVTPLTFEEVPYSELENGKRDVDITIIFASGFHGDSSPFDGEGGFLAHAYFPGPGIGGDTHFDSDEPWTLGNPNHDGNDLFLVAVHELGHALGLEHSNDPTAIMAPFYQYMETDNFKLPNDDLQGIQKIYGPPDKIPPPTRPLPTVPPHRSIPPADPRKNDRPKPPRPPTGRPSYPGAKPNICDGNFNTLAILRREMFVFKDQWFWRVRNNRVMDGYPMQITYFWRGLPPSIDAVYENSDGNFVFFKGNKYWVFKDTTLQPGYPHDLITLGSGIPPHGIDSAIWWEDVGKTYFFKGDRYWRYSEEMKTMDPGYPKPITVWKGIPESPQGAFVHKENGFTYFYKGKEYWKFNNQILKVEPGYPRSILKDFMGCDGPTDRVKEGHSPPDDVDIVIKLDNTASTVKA

With `O=C(O)[C@H]1[C@H](Cn2nnc3ccccc3c2=O)CC[C@@H]1C(=O)c1ccc(OCCC2CCCCC2)cc1` (racemic) [Example 5, (+/−)-(1RS,2RS,5SR)-2-[4-(2-Cyclohexylethoxy)benzoyl]-5-[(4-oxo-1,2,3-benzotriazin-3(4H)-yl)methyl]cyclopentanecarboxylic acid], the IC50 in test [1] is 220 nM; in test [2], 2400 nM; in test [3], 350 nM; in test [4] it was 2500 nM.

Take `O=C(O)[C@H]1[C@H](Cn2nnc3ccccc3c2=O)CC[C@@H]1C(=O)c1ccc(OCc2ccc(F)cc2)cc1` (racemic) [Example 1, (+/−)-(1RS,2RS,5SR)-2-{4-[(4-Fluorobenzyl)oxy]benzoyl}-5-[(4-oxo-1,2,3-benzotriazin-3(4H)-yl)methyl]cyclopentanecarboxylic acid]: the concentration for half-maximal inhibition (IC50) in test [1] was determined as 9.3 nM; in test [2], 1100 nM; in test [3], 11 nM; in test [4], 130 nM.

As for `O=C(O)[C@@H]1[C@@H](Cn2nnc3ccc(C(F)(F)F)cc3c2=O)CC[C@H]1C(=O)c1ccc(SCc2ccc(Cl)c(Cl)c2)cc1` (single isomer, unassigned) [Example 80, (+)-(1RS,2RS,5SR)-2-{4-[(3,4-Dichlorobenzyl)sulphanyl]benzoyl}-5-{[4-oxo-6-(trifluoromethyl)-1,2,3-benzotriazin-3(4H)-yl]methyl}cyclopentanecarboxylic acid], the IC50 turned out to be 1400 nM in test [1], 200 nM in test [2], 840 nM in test [3] and 5500 nM in test [4].

Regarding `O=C(O)[C@H]1[C@H](Cn2nnc3ccc(C(F)(F)F)cc3c2=O)CC[C@@H]1C(=O)c1ccc(OCCCc2ccccc2)cc1` (racemic) [Example 39, (+/−)-(1RS,2SR,5RS)-2-{[4-Oxo-6-(trifluoromethyl)-1,2,3-benzotriazin-3(4H)-yl]methyl}-5-[4-(3-phenylpropoxy)benzoyl]cyclopentanecarboxylic acid], the IC50 in test [1] worked out at 4600 nM; in test [2] it was 730 nM; in test [3], 1600 nM; in test [4] it was 14000 nM.

Regarding `Cc1cccc(COc2ccc(C(=O)[C@@H]3CC[C@H](Cn4nnc5ccc(C(F)(F)F)cc5c4=O)[C@H]3C(=O)O)cc2)c1` (single isomer, unassigned) [Example 16, (+)-(1RS,2RS,5SR)-2-{4-[(3-Methylbenzyl)oxy]benzoyl}-5-{[4-oxo-6-(trifluoromethyl)-1,2,3-benzotriazin-3(4H)-yl]methyl}cyclopentanecarboxylic acid], the concentration for half-maximal inhibition (IC50) was determined as 970 nM in test [1], 190 nM in test [2], 1000 nM in test [3] and 1700 nM in test [4].

Take `Cc1ccc2nnn(C[C@H]3CC[C@@H](C(=O)c4ccc(OCC5CCCCC5)cc4)[C@@H]3C(=O)O)c(=O)c2c1` (single isomer, unassigned) [Example 117, (+)-(1RS,2RS,5SR)-2-[4-(Cyclohexylmethoxy)benzoyl]-5-[(6-methyl-4-oxo-1,2,3-benzotriazin-3(4H)-yl)methyl]cyclopentanecarboxylic acid]: the IC50 in test [1] amounted to 97 nM; in test [2], 100 nM; in test [3], 74 nM; in test [4], 260 nM.

Turning to `O=C(O)[C@H]1[C@H](Cn2nnc3ccc(C(F)(F)F)cc3c2=O)CC[C@@H]1C(=O)c1ccc(OCc2ccccc2)cc1` (racemic) [Example 11, (+/−)-(1RS,2RS,5SR)-2-[4-(Benzyloxy)benzoyl]-5-{[4-oxo-6-(trifluoromethyl)-1,2,3-benzotriazin-3(4H)-yl]methyl}cyclopentanecarboxylic acid], the IC50 was determined as 210 nM in test [1], 87 nM in test [2], 88 nM in test [3] and 4500 nM in test [4].

As to `Cc1ccc2nnn(C[C@@H]3CC[C@H](C(=O)c4ccc(OCc5cccc(OC(F)(F)F)c5)cc4)[C@H]3C(=O)O)c(=O)c2c1` (racemic) [Example 109, (+/−)-(1RS,2SR,5RS)-2-[(6-Methyl-4-oxo-1,2,3-benzotriazin-3(4H)-yl)methyl]-5-(4-{[3-(trifluoromethoxy)benzyl]oxy}benzoyl)cyclopentanecarboxylic acid], the IC50 in test [1] is 1100 nM; in test [2], 1700 nM; in test [3], 190 nM; in test [4], 3200 nM.

As for `O=C(O)[C@H]1[C@H](Cn2nnc3ccc(C(F)(F)F)cc3c2=O)CC[C@@H]1C(=O)c1ccc(OCc2cccc(C(F)(F)F)c2)cc1` (racemic) [Example 18, (+/−)-(1RS,2SR,5RS)-2-{[4-Oxo-6-(trifluoromethyl)-1,2,3-benzotriazin-3(4H)-yl]methyl}-5-(4-{[3-(trifluoromethyl)benzyl]oxy}benzoyl)cyclopentanecarboxylic acid], the IC50 in test [1] was determined as 2000 nM; in test [2], 910 nM; in test [3] it was 1400 nM; in test [4], 4000 nM.

With `Cc1ccc2nnn(C[C@@H]3CC[C@H](C(=O)c4ccc(OCc5cccc(Cl)c5)cc4)[C@H]3C(=O)O)c(=O)c2c1` (racemic) [Example 103, (+/−)-(1RS,2RS,5SR)-2-{4-[(3-Chlorobenzyl)oxy]benzoyl}-5-[(6-methyl-4-oxo-1,2,3-benzotriazin-3(4H)-yl)methyl]cyclopentanecarboxylic acid], the IC50 in test [1] worked out at 370 nM; in test [2], 330 nM; in test [3], 250 nM; in test [4], 14000 nM.

As a reminder, the IC50 is the midpoint of a concentration-inhibition curve.
